Publication PMC9261792 (Journal of Food and Drug Analysis, 2021)

Molecular target: T1, hSGLT1 (Homo sapiens, UniProt P13866)
T1 sequence (P13866 1-664): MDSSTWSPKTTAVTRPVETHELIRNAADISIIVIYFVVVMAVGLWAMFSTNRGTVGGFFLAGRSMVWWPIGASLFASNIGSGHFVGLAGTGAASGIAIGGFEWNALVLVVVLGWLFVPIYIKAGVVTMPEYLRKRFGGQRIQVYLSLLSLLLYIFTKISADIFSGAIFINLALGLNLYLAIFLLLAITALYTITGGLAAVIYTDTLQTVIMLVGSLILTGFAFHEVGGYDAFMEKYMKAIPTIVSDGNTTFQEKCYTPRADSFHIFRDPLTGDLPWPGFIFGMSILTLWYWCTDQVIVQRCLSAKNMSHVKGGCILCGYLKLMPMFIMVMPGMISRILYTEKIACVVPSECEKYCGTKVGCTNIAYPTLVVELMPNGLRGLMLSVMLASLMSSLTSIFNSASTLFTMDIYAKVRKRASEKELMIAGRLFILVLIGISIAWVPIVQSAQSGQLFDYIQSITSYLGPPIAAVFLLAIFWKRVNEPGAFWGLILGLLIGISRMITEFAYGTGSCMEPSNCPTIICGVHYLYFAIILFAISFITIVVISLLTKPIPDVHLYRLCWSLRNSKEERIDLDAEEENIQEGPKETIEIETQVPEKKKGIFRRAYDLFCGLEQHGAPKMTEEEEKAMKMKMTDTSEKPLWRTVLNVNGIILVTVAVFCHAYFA
Assay: 1-NBDG uptake inhibition in COS-7 cells expressing hSGLT1, single dose […]
Type: cell-based
Details: COS-7, read-out: % Uptake via / hSGLT1

O=C(/C=C/c1ccc(O)cc1)OC[C@H]1O[C@@H](Oc2c(-c3ccc(O)cc3)oc3cc(O)cc(O)c3c2=O)[C@H](O)[C@@H](O)[C@@H]1O [compound 15, Tiliroside]
activity at 50 µM: 33.1 ± 0.85%
